Experimental data as given in US8802597B2, “Herbicidal pyrimidines” (E I du Pont de Nemours and Company, priority 2003, dated 2014).

Experiments:
Assay in all cases: Test C pre/postemergence
Format in all cases: in vivo
[1] = system: Surinam grass (Brachiaria decumbens); details: Postemergence; for Plant response rating, Surinam Grass: scale 0 to 100
Source text: (§1) Seeds or nutlets of plant species selected from bermudagrass (Cynodon dactylon), Surinam grass (Brachiaria decumbens), cocklebur (Xanthium strumarium), corn (Zea mays), crabgrass (Digitaria sanguinalis), woolly cupgrass (Eriochloa villosa), giant foxtail (Setaria faberii), goosegrass (Eleusine indica), johnsongrass (Sorghum halepense), kochia (Kochia scoparia), lambsquarters (Chenopodium album), morningglory (Ipomoea coccinea), eastern black nightshade (Solanum ptycanthum), yellow nutsedge (Cyperus esculentus), pigweed (Amaranthus retroflexus), common ragweed (Ambrosia elatior), soybean (Glycine max), common (oilseed) sunflower (Helianthus annuus), and velvetleaf (Abutilon theophrasti) were planted and treated preemergence with test chemicals formulated in a non-phytotoxic solvent mixture which included a surfactant.
(§2) At the same time, plants selected from these crop and weed species and also winter barley (Hordeum vulgare), blackgrass (Alopecurus myosuroides), canarygrass (Phalaris minor), chickweed (Stellaria media), downy brome (Bromus tectorum), green foxtail (Setaria viridis), Italian ryegrass (Lolium multiflorum), wheat (Triticum aestivum), wild oat (Avena fatua) and windgrass (Apera spica-venti) were treated with postemergence applications of some of the test chemicals formulated in the same manner. Plants ranged in height from 2 to 18 cm (1- to 4-leaf stage) for postemergence treatments. Plant species in the flooded paddy test consisted of rice (Oryza sativa), umbrella sedge (Cyperus difformis), duck salad (Heteranthera limosa) and barnyardgrass (Echinochloa crus-galli) grown to the 2-leaf stage for testing. Treated plants and controls were maintained in a greenhouse for 12 to 14 days, after which time all species were compared to controls and visually evaluated. Plant response ratings, summarized in Table C, are based on a scale of 0 to 100 where 0 is no effect and 100 is complete control. A dash (-) response means no test result.

[2] = system: cocklebur (Xanthium strumarium); details: Postemergence; for Plant response rating, Cocklebur: scale 0 to 100
Source text: as §1, §2

[3] = system: corn (Zea mays); details: Postemergence; for Plant response rating, Corn: scale 0 to 100
Source text: as §1, §2

[4] = system: crabgrass (Digitaria sanguinalis); details: Postemergence; for Plant response rating, Crabgrass: scale 0 to 100
Source text: as §1, §2

[5] = system: giant foxtail (Setaria faberii); details: Postemergence; for Plant response rating, Foxtail, Giant: scale 0 to 100
Source text: as §1, §2

[6] = system: johnsongrass (Sorghum halepense); details: Postemergence
Source text: as §1, §2

[7] = system: kochia (Kochia scoparia); details: Postemergence; for Plant response rating, Kochia: scale 0 to 100
Source text: as §1, §2

[8] = system: lambsquarters (Chenopodium album); details: Postemergence; for Plant response rating, Lambsquarters: scale 0 to 100
Source text: as §1, §2

[9] = system: morningglory (Ipomoea coccinea); details: Postemergence; for Plant response rating, Morningglory: scale 0 to 100
Source text: as §1, §2

[10] = system: soybean (Glycine max); details: Postemergence; for Plant response rating, Soybean: scale 0 to 100
Source text: as §1, §2

[11] = 62 g ai/ha, scale 0 to 100 (0 no effect, 100 complete control)
[12] = 125 g ai/ha, scale 0 to 100 (0 no effect, 100 complete control)

`CCOC(=O)c1nc(-c2ccc(Br)cc2)nc(N)c1Cl` [Compound 94, ethyl 6-amino-2-(4-bromophenyl)-5-chloro-4-pyrimidinecarboxylate] showed a pest or weed control at 125 g/ha ([1]; Urochloa decumbens, post-emergence, 125 g ai/ha, scale 0 to 100 (0 no effect, 100 complete control), read-out: Surinam Grass plant response rating) of 100%, a pest or weed control at 16 g/ha ([1]; Urochloa decumbens, post-emergence, 16 g ai/ha, read-out: Plant response rating (scale of 0 to 100), Surinam Grass) of 50% and a pest or weed control at 31 g/ha ([1]; Urochloa decumbens, post-emergence, 31 g ai/ha, read-out: Plant response rating (scale of 0 to 100), Surinam Grass) of 60%. The pest or weed control at 62 g/ha ([1]; Urochloa decumbens, post-emergence, 62 g ai/ha, read-out: Plant response rating (scale of 0 to 100), Surinam Grass) was 90%, the pest or weed control at 16 g/ha ([2]; Xanthium strumarium, post-emergence, 16 g ai/ha, read-out: Plant response rating (scale of 0 to 100), Cocklebur) was 75% and the pest or weed control at 31 g/ha ([2]; Xanthium strumarium, post-emergence, 31 g ai/ha, read-out: Plant response rating (scale of 0 to 100), Cocklebur) was 80%. For the same compound, the pest or weed control at 62 g/ha ([2]; Xanthium strumarium, post-emergence, 62 g ai/ha, read-out: Plant response rating (scale of 0 to 100), Cocklebur) was 90%, the pest or weed control at 125 g/ha ([2]; Xanthium strumarium, post-emergence, 125 g ai/ha, scale 0 to 100 (0 no effect, 100 complete control), read-out: Cocklebur plant response rating) was 100% and the Corn plant response rating (crop injury, 0 = no effect, 100 = complete kill) at 16 g/ha ([3]; Zea mays, post-emergence, 16 g ai/ha, read-out: Plant response rating (scale of 0 to 100), Corn) was 10%. For the same compound, the Corn plant response rating (crop injury, 0 = no effect, 100 = complete kill) at 31 g/ha ([3]; Zea mays, post-emergence, 31 g ai/ha, read-out: Plant response rating (scale of 0 to 100), Corn) was 35%, the Corn plant response rating (crop injury, 0 = no effect, 100 = complete kill) at 62 g/ha ([3]; Zea mays, post-emergence, 62 g ai/ha, read-out: Plant response rating (scale of 0 to 100), Corn) was 35% and the Corn plant response rating (crop injury, 0 = no effect, 100 = complete kill) at 125 g/ha ([3]; Zea mays, post-emergence, 125 g ai/ha, scale 0 to 100 (0 no effect, 100 complete control), read-out: Corn plant response rating) was 60%. It also gave a pest or weed control at 16 g/ha ([4]; Digitaria sanguinalis, post-emergence, 16 g ai/ha, read-out: Plant response rating (scale of 0 to 100), Crabgrass) of 70%, a pest or weed control at 31 g/ha ([4]; Digitaria sanguinalis, post-emergence, 31 g ai/ha, read-out: Plant response rating (scale of 0 to 100), Crabgrass) of 80% and a pest or weed control at 62 g/ha ([4]; Digitaria sanguinalis, post-emergence, 62 g ai/ha, read-out: Plant response rating (scale of 0 to 100), Crabgrass) of 85%. The pest or weed control at 125 g/ha ([4]; Digitaria sanguinalis, post-emergence, 125 g ai/ha, scale 0 to 100 (0 no effect, 100 complete control), read-out: Crabgrass plant response rating) was 85%, the pest or weed control at 125 g/ha ([5]; Setaria faberi, post-emergence, 125 g ai/ha, scale 0 to 100 (0 no effect, 100 complete control), read-out: Foxtail, Giant plant response rating) was 80% and the pest or weed control at 16 g/ha ([5]; Setaria faberi, post-emergence, 16 g ai/ha, read-out: Plant response rating (scale of 0 to 100), Foxtail, Giant) was 30%. For the same compound, the pest or weed control at 31 g/ha ([5]; Setaria faberi, post-emergence, 31 g ai/ha, read-out: Plant response rating (scale of 0 to 100), Foxtail, Giant) was 65%, the pest or weed control at 62 g/ha ([5]; Setaria faberi, post-emergence, 62 g ai/ha, read-out: Plant response rating (scale of 0 to 100), Foxtail, Giant) was 80% and the pest or weed control at 16 g/ha ([6]; Sorghum halepense, post-emergence, 16 g ai/ha, read-out: Plant response rating (scale of 0 to 100), Johnsongrass) was 55%. The pest or weed control at 31 g/ha ([6]; Sorghum halepense, post-emergence, 31 g ai/ha, read-out: Plant response rating (scale of 0 to 100), Johnsongrass) was 60%, the pest or weed control at 62 g/ha ([6]; Sorghum halepense, post-emergence, 62 g ai/ha, read-out: Plant response rating (scale of 0 to 100), Johnsongrass) was 75% and the pest or weed control at 125 g/ha ([6]; Sorghum halepense, post-emergence, 125 g ai/ha, scale 0 to 100 (0 no effect, 100 complete control), read-out: Johnsongrass plant response rating) was 90%. It also gave a pest or weed control at 16 g/ha ([7]; Bassia scoparia, post-emergence, 16 g ai/ha, read-out: Plant response rating (scale of 0 to 100), Kochia) of 75%, a pest or weed control at 31 g/ha ([7]; Bassia scoparia, post-emergence, 31 g ai/ha, read-out: Plant response rating (scale of 0 to 100), Kochia) of 90% and a pest or weed control at 62 g/ha ([7]; Bassia scoparia, post-emergence, 62 g ai/ha, read-out: Plant response rating (scale of 0 to 100), Kochia) of 95%. The pest or weed control at 125 g/ha ([7]; Bassia scoparia, post-emergence, 125 g ai/ha, scale 0 to 100 (0 no effect, 100 complete control), read-out: Kochia plant response rating) was 100%, the pest or weed control at 16 g/ha ([8]; Chenopodium album, post-emergence, 16 g ai/ha, read-out: Plant response rating (scale of 0 to 100), Lambsquarters) was 95% and the pest or weed control at 31 g/ha ([8]; Chenopodium album, post-emergence, 31 g ai/ha, read-out: Plant response rating (scale of 0 to 100), Lambsquarters) was 95%. It also gave a pest or weed control at 62 g/ha ([8]; Chenopodium album, post-emergence, 62 g ai/ha, read-out: Plant response rating (scale of 0 to 100), Lambsquarters) of 95%, a pest or weed control at 125 g/ha ([8]; Chenopodium album, post-emergence, 125 g ai/ha, scale 0 to 100 (0 no effect, 100 complete control), read-out: Lambsquarters plant response rating) of 100% and a pest or weed control at 16 g/ha ([9]; Ipomoea, post-emergence, 16 g ai/ha, read-out: Plant response rating (scale of 0 to 100), Morningglory) of 60%. For the same compound, the pest or weed control at 31 g/ha ([9]; Ipomoea, post-emergence, 31 g ai/ha, read-out: Plant response rating (scale of 0 to 100), Morningglory) was 80%, the pest or weed control at 62 g/ha ([9]; Ipomoea, post-emergence, 62 g ai/ha, read-out: Plant response rating (scale of 0 to 100), Morningglory) was 90% and the pest or weed control at 125 g/ha ([9]; Ipomoea, post-emergence, 125 g ai/ha, scale 0 to 100 (0 no effect, 100 complete control), read-out: Morningglory plant response rating) was 100%. For the same compound, the plant injury at 16 g/ha ([10]; Glycine max, post-emergence, 16 g ai/ha, read-out: Plant response rating (scale of 0 to 100), Soybean) was 100%, the plant injury at 31 g/ha ([10]; Glycine max, post-emergence, 31 g ai/ha, read-out: Plant response rating (scale of 0 to 100), Soybean) was 100% and the plant injury at 62 g/ha ([10]; Glycine max, post-emergence, 62 g ai/ha, read-out: Plant response rating (scale of 0 to 100), Soybean) was 100%. For the same compound, the plant injury at 125 g/ha ([10]; Glycine max, post-emergence, 125 g ai/ha, scale 0 to 100 (0 no effect, 100 complete control), read-out: Soybean plant response rating) was 100%.

For `CCOC(=O)c1nc(-c2ccc(Cl)cc2)nc(N)c1Br` [Compound 37], the “Surinam Grass plant response rating” value [1, 11] was 0, the “Surinam Grass plant response rating” value [1, 12] was 0 and the “Plant response rating, Surinam Grass” value ([1]; 250 g ai/ha) was 0. The “Plant response rating, Surinam Grass” value ([1]; 500 g ai/ha) was 0, the “Cocklebur plant response rating” value [2, 11] was 0 and the “Cocklebur plant response rating” value [2, 12] was 95. The “Plant response rating, Cocklebur” value ([2]; 250 g ai/ha) was 95, the “Plant response rating, Cocklebur” value ([2]; 500 g ai/ha) was 95 and the “Corn plant response rating” value [3, 11] was 0. For the same compound, the “Corn plant response rating” value [3, 12] was 10, the “Plant response rating, Corn” value ([3]; 250 g ai/ha) was 15 and the “Plant response rating, Corn” value ([3]; 500 g ai/ha) was 25. For the same compound, the “Crabgrass plant response rating” value [4, 11] was 0, the “Crabgrass plant response rating” value [4, 12] was 15 and the “Plant response rating, Crabgrass” value ([4]; 250 g ai/ha) was 40. The “Plant response rating, Crabgrass” value ([4]; 500 g ai/ha) was 60, the “Foxtail, Giant plant response rating” value [5, 11] was 0 and the “Foxtail, Giant plant response rating” value [5, 12] was 0. For the same compound, the “Plant response rating, Foxtail, Giant” value ([5]; 250 g ai/ha) was 40, the “Plant response rating, Foxtail, Giant” value ([5]; 500 g ai/ha) was 45 and the “Johnsongrass plant response rating” value [6, 11] was 0. The “Johnsongrass plant response rating” value [6, 12] was 20, the “Plant response rating, Johnsongrass” value ([6]; 500 g ai/ha, scale 0 to 100) was 55 and the “Kochia plant response rating” value [7, 11] was 0. The “Kochia plant response rating” value [7, 12] was 90, the “Plant response rating, Kochia” value ([7]; 250 g ai/ha) was 95 and the “Plant response rating, Kochia” value ([7]; 500 g ai/ha) was 95. The “Lambsquarters plant response rating” value [8, 11] was 0, the “Lambsquarters plant response rating” value [8, 12] was 95 and the “Plant response rating, Lambsquarters” value ([8]; 250 g ai/ha) was 95. For the same compound, the “Plant response rating, Lambsquarters” value ([8]; 500 g ai/ha) was 95, the “Morningglory plant response rating” value [9, 11] was 0 and the “Morningglory plant response rating” value [9, 12] was 65. The “Plant response rating, Morningglory” value ([9]; 250 g ai/ha) was 80, the “Plant response rating, Morningglory” value ([9]; 500 g ai/ha) was 95 and the “Soybean plant response rating” value [10, 11] was 20. The “Soybean plant response rating” value [10, 12] was 85, the “Plant response rating, Soybean” value ([10]; 250 g ai/ha) was 95 and the “Plant response rating, Soybean” value ([10]; 500 g ai/ha) was 100.
